Laboratory results as given in article PMC9516332 (Frontiers in Oncology, 2022).
Like-named read-outs stand apart in the source and are kept apart here.

Test system: 134 cancer cell lines
Experiment: Cell viability assay (ATPlite, 72 hours), IC50 on cancer cell line panel

- IC50 (Homo sapiens, MOLM-13, read-out: IC50 in cell proliferation assay, MOLM-13 cell line (FLT3 ITD)): 1030 nM
- IC50 (Homo sapiens, MOLT-4, read-out: IC50 in cell proliferation assay, MOLT-4 cell line): > 31600 nM
- IC50 (Homo sapiens, MV4-11, read-out: IC50 in cell proliferation assay, MV4-11 cell line (FLT3 ITD)): 511 nM
- IC50 (Homo sapiens, MeWo, read-out: IC50 in cell proliferation assay, MeWo cell line): 117 nM
- IC50 (Homo sapiens, NCCIT, read-out: IC50 in cell proliferation assay, NCC-IT cell line): 12100 nM
- IC50 (Homo sapiens, NCI-H82, read-out: IC50 in cell proliferation assay, cell line NCI-H82): > 31600 nM
- IC50 (Homo sapiens, NCI-H460, read-out: IC50 in cell proliferation assay, NCI-H460 cell line): 120 nM
- IC50 (Homo sapiens, NCI-H661, read-out: IC50 in cell proliferation assay, NCI-H661 cell line): 3310 nM
- IC50 (Homo sapiens, NCI-H716, read-out: IC50 in cell proliferation assay, cell line NCI-H716 (FGFR2-COL14A1)): 27 nM
- IC50 (Homo sapiens, NCI-H1650, read-out: IC50 in cell proliferation assay, NCI-H1650 cell line (EGFR exon19del)): 8560 nM
- IC50 (Homo sapiens, NCI-H1975, read-out: IC50 in cell proliferation assay, NCI-H1975 cell line (EGFR p.L858R + p.T790M)): 201 nM
- IC50 (Homo sapiens, NCI-H2228, read-out: IC50 in cell proliferation assay, NCI-H2228 cell line (EML4-ALK)): 16 nM
- IC50 (Homo sapiens, OVCAR-3, read-out: IC50 in cell proliferation assay, cell line OVCAR-3): > 31600 nM
- IC50 (Homo sapiens, PFSK-1, read-out: IC50 in cell proliferation assay, cell line PFSK-1): > 31600 nM
- IC50 (Homo sapiens, RL95-2, read-out: IC50 in cell proliferation assay, cell line RL95-2 (EGFR p.A289V)): 24 nM
- IC50 (Homo sapiens, RPMI-7951, read-out: IC50 in cell proliferation assay, cell line RPMI-7951 (BRAF p.V600E)): 199 nM
- IC50 (Homo sapiens, RS4-11, read-out: IC50 in cell proliferation assay, cell line RS4;11): > 31600 nM
- IC50 (Homo sapiens, Rec1, read-out: IC50 in cell proliferation assay, cell line REC-1): > 31600 nM
- IC50 (Homo sapiens, SHP77, read-out: IC50 in cell proliferation assay, cell line SHP-77): > 31600 nM
- IC50 (Homo sapiens, SK-BR-3, read-out: IC50 in cell proliferation assay, cell line SK-BR-3 (ERBB2 amplification)): > 31600 nM
- IC50 (Homo sapiens, SK-N-AS, read-out: IC50 in cell proliferation assay, cell line SK-N-AS): 14 nM
- IC50 (Homo sapiens, SK-N-FI, read-out: IC50 in cell proliferation assay, cell line SK-N-FI): 798 nM
- IC50 (Homo sapiens, SK-N-MC, read-out: IC50 in cell proliferation assay, cell line SK-N-MC): > 31600 nM
- IC50 (Homo sapiens, SK-N-SH, read-out: IC50 in cell proliferation assay, cell line SK-N-SH (ALK p.F1174L)): 59 nM
- IC50 (Homo sapiens, SNU-5, read-out: IC50 in cell proliferation assay, cell line SNU-5 (MET amplification)): 1460 nM
- IC50 (Homo sapiens, SNU-16, read-out: IC50 in cell proliferation assay, cell line SNU-16 (FGFR2 amplification)): 9730 nM
- IC50 (Homo sapiens, SNU-C2B, read-out: IC50 in cell proliferation assay, cell line SNU-C2B (EGFR p.R165Q)): 176 nM
- IC50 (Homo sapiens, SU-DHL-1, read-out: IC50 in cell proliferation assay, cell line SU-DHL-1 (NPM1-ALK)): 2840 nM
- IC50 (Homo sapiens, SU-DHL-6, read-out: IC50 in cell proliferation assay, cell line SU-DHL-6): 47 nM
- IC50 (Homo sapiens, SUP-T1, read-out: IC50 in cell proliferation assay, cell line SUP-T1): > 31600 nM
- IC50 (Homo sapiens, SW48, read-out: IC50 in cell proliferation assay, cell line SW48 (EGFR p.G719S)): 14 nM
- IC50 (Homo sapiens, SW480, read-out: IC50 in cell proliferation assay, cell line SW480): 739 nM
- IC50 (Homo sapiens, SW626, read-out: IC50 in cell proliferation assay, cell line SW626): 32 nM
- IC50 (Homo sapiens, SW780, read-out: IC50 in cell proliferation assay, cell line SW780 (FGFR3-BAIAP2L1)): 272 nM
- IC50 (Homo sapiens, SW837, read-out: IC50 in cell proliferation assay, cell line SW837): 110 nM
- IC50 (Homo sapiens, SW872, read-out: IC50 in cell proliferation assay, cell line SW872 (BRAF p.V600E)): 34 nM
- IC50 (Homo sapiens, SW900, read-out: IC50 in cell proliferation assay, cell line SW900): 77 nM
- IC50 (Homo sapiens, SW948, read-out: IC50 in cell proliferation assay, cell line SW948): 82 nM
- IC50 (Homo sapiens, SW982, read-out: IC50 in cell proliferation assay, cell line SW982 (BRAF p.V600E)): 166 nM
- IC50 (Homo sapiens, SW-620, read-out: IC50 in cell proliferation assay, cell line SW620): 18 nM
- IC50 (Homo sapiens, T98G, read-out: IC50 in cell proliferation assay, cell line T98G): 11900 nM
- IC50 (Homo sapiens, TCC-SUP, read-out: IC50 in cell proliferation assay, cell line TCCSUP): 363 nM
- IC50 (Homo sapiens, THP-1, read-out: IC50 in cell proliferation assay, cell line THP-1): 17 nM
- IC50 (Homo sapiens, U2OS, read-out: IC50 in cell proliferation assay, cell line U2OS): 4120 nM
- IC50 (Homo sapiens, U-87 MG, read-out: IC50 in cell proliferation assay, cell line U-87MG ATCC): 8590 nM
- IC50 (Homo sapiens, U-118-MG, read-out: IC50 in cell proliferation assay, cell line U-118MG): > 31600 nM
- IC50 (Homo sapiens, UMUC3, read-out: IC50 in cell proliferation assay, cell line UM-UC-3): 124 nM
- IC50 (Hs766T, read-out: IC50 in cell proliferation assay, Hs 766T cell line): 33 nM
- IC50 (L-82, read-out: IC50 in cell proliferation assay, L-82 cell line (NPM1-ALK)): 1900 nM
- IC50 (Rh30, read-out: IC50 in cell proliferation assay, cell line Rh30): > 31600 nM
- IC50 (read-out: IC50 in cell proliferation assay, 11-18 cell line (EGFR p.L858R)): > 31600 nM
- IC50 (read-out: IC50 in cell proliferation assay, Hs 852.T cell line): 271 nM
- IC50 (read-out: IC50 in cell proliferation assay, JAR cell line): > 31600 nM
- IC50 (read-out: IC50 in cell proliferation assay, cell line 5637): 139 nM
- IC50 (read-out: IC50 in cell proliferation assay, cell line A-388): 696 nM
- IC50 (read-out: IC50 in cell proliferation assay, cell line DB): > 31600 nM
- IC50 (read-out: IC50 in cell proliferation assay, cell line DEL (NPM1-ALK)): > 31600 nM
- IC50 (read-out: IC50 in cell proliferation assay, cell line ES-2 (BRAF p.V600E)): 188 nM
- IC50 (read-out: IC50 in cell proliferation assay, cell line PA-1): 1350 nM
- IC50 (read-out: IC50 in cell proliferation assay, cell line PC-3): > 31600 nM
- IC50 (read-out: IC50 in cell proliferation assay, cell line RD): 40 nM
- IC50 (read-out: IC50 in cell proliferation assay, cell line RKO (BRAF p.V600E)): 29 nM
- IC50 (read-out: IC50 in cell proliferation assay, cell line RL): > 31600 nM
- IC50 (read-out: IC50 in cell proliferation assay, cell line RT-4 (FGFR3-TACC3)): 19000 nM
- IC50 (read-out: IC50 in cell proliferation assay, cell line SR (NPM1-ALK)): 4030 nM
- IC50 (read-out: IC50 in cell proliferation assay, cell line T24): 60 nM
- IC50 (read-out: IC50 in cell proliferation assay, cell line TT (RET p.C634W)): 1750 nM
- IC50 (read-out: IC50 in cell proliferation assay, cell line VA-ES-BJ): 8280 nM
SMILES: Cn1cnc2c(F)c(Nc3ccc(Br)cc3F)c(C(=O)NOCCO)cc21 [binimetinib]
